Measurements taken from the NIST ThermoML archive (doi:10.1016/j.jct.2011.09.027).
Numbers after ± are expanded uncertainties.

Settings: Liquid; for mass density: Vibrating tube method; for viscosity: Concentric cylinders viscometry

CCOS(=O)(=O)[O-].CCn1cc[n+](C)c1 [1-ethyl-3-methylimidazolium ethyl sulfate]
mass density (333.15 K, 101.33 kPa): 1214.27 ± 1.3 kg/m3
mass density (333.15 K, 4956 kPa): 1216.39 ± 1.4 kg/m3
mass density (333.15 K, 29992 kPa): 1227.03 ± 1.6 kg/m3
mass density (333.15 K, 69997 kPa): 1242.77 ± 2 kg/m3
mass density (333.15 K, 109862 kPa): 1256.89 ± 2.5 kg/m3
mass density (333.15 K, 121234 kPa): 1260.63 ± 2.6 kg/m3
mass density (333.16 K, 49995 kPa): 1235.1 ± 1.8 kg/m3
mass density (333.16 K, 60002 kPa): 1238.99 ± 1.9 kg/m3
mass density (333.16 K, 129872 kPa): 1263.39 ± 2.8 kg/m3
mass density (333.17 K, 1680 kPa): 1214.95 ± 1.3 kg/m3
mass density (333.17 K, 40144 kPa): 1231.18 ± 1.7 kg/m3
mass density (333.18 K, 139672 kPa): 1266.43 ± 2.9 kg/m3
viscosity (343.15 K, 101.33 kPa): 18.7 ± 0.4 mPa·s
mass density (353.13 K, 19599 kPa): 1209.45 ± 1.4 kg/m3
mass density (353.13 K, 29993 kPa): 1214.03 ± 1.6 kg/m3
mass density (353.13 K, 39918 kPa): 1218.29 ± 1.6 kg/m3
mass density (353.13 K, 79974 kPa): 1234.36 ± 2.1 kg/m3
mass density (353.13 K, 119073 kPa): 1248.32 ± 2.5 kg/m3
mass density (353.14 K, 89917 kPa): 1238.07 ± 2.2 kg/m3
mass density (353.14 K, 99462 kPa): 1241.53 ± 2.3 kg/m3
mass density (353.14 K, 109824 kPa): 1245.17 ± 2.4 kg/m3
mass density (353.14 K, 129849 kPa): 1251.87 ± 2.7 kg/m3
mass density (353.14 K, 139892 kPa): 1255.06 ± 2.8 kg/m3
viscosity (353.15 K, 101.33 kPa): 14.6 ± 0.3 mPa·s
mass density (353.15 K, 101.33 kPa): 1200.53 ± 1.3 kg/m3
mass density (353.15 K, 49925 kPa): 1222.47 ± 1.8 kg/m3
mass density (353.15 K, 69993 kPa): 1230.52 ± 2 kg/m3
mass density (353.18 K, 59605 kPa): 1226.41 ± 1.9 kg/m3
mass density (353.19 K, 1193 kPa): 1201.04 ± 1.3 kg/m3
mass density (353.19 K, 4987 kPa): 1202.81 ± 1.3 kg/m3
mass density (353.19 K, 10093 kPa): 1205.15 ± 1.4 kg/m3
viscosity (363.15 K, 101.33 kPa): 11.9 ± 0.3 mPa·s
mass density (363.15 K, 101.33 kPa): 1194.25 ± 1.3 kg/m3
mass density (373.11 K, 118179 kPa): 1236.88 ± 2.4 kg/m3
mass density (373.12 K, 19814 kPa): 1197.22 ± 1.4 kg/m3
mass density (373.13 K, 10765 kPa): 1192.98 ± 1.3 kg/m3
mass density (373.13 K, 29997 kPa): 1201.88 ± 1.5 kg/m3
mass density (373.13 K, 39971 kPa): 1206.31 ± 1.6 kg/m3
mass density (373.13 K, 98959 kPa): 1230.06 ± 2.2 kg/m3
mass density (373.13 K, 109856 kPa): 1233.98 ± 2.4 kg/m3
mass density (373.13 K, 129856 kPa): 1240.8 ± 2.6 kg/m3
mass density (373.14 K, 49993 kPa): 1210.64 ± 1.7 kg/m3
viscosity (373.15 K, 101.33 kPa): 9.7 ± 0.2 mPa·s
mass density (373.15 K, 59698 kPa): 1214.72 ± 1.8 kg/m3
mass density (373.15 K, 90001 kPa): 1226.72 ± 2.1 kg/m3
mass density (373.15 K, 140000 kPa): 1244.08 ± 2.7 kg/m3
mass density (373.16 K, 69987 kPa): 1218.92 ± 1.9 kg/m3
mass density (373.17 K, 1377 kPa): 1188.48 ± 1.2 kg/m3
mass density (373.17 K, 5226 kPa): 1190.34 ± 1.3 kg/m3
mass density (373.17 K, 79962 kPa): 1222.87 ± 2 kg/m3
mass density (393.12 K, 910 kPa): 1175.14 ± 1.2 kg/m3
mass density (393.12 K, 59389 kPa): 1202.77 ± 1.8 kg/m3
mass density (393.12 K, 69993 kPa): 1207.25 ± 1.9 kg/m3
mass density (393.12 K, 79111 kPa): 1210.99 ± 1.9 kg/m3
mass density (393.13 K, 5153 kPa): 1177.31 ± 1.2 kg/m3
mass density (393.13 K, 89994 kPa): 1215.29 ± 2.1 kg/m3
mass density (393.14 K, 99376 kPa): 1218.86 ± 2.2 kg/m3
mass density (393.15 K, 49959 kPa): 1198.64 ± 1.6 kg/m3
mass density (393.15 K, 109877 kPa): 1222.71 ± 2.3 kg/m3
mass density (393.15 K, 119972 kPa): 1226.26 ± 2.4 kg/m3
mass density (393.15 K, 129874 kPa): 1229.6 ± 2.5 kg/m3
mass density (393.15 K, 139106 kPa): 1232.59 ± 2.6 kg/m3
mass density (393.16 K, 10368 kPa): 1179.94 ± 1.3 kg/m3
mass density (393.16 K, 20408 kPa): 1184.89 ± 1.4 kg/m3
mass density (393.16 K, 29995 kPa): 1189.49 ± 1.5 kg/m3
mass density (393.16 K, 39725 kPa): 1194.02 ± 1.6 kg/m3
mass density (413.12 K, 9823 kPa): 1167.05 ± 1.3 kg/m3
mass density (413.12 K, 98120 kPa): 1207.66 ± 2.1 kg/m3
mass density (413.13 K, 19924 kPa): 1172.37 ± 1.3 kg/m3
mass density (413.13 K, 109866 kPa): 1212.06 ± 2.2 kg/m3
mass density (413.13 K, 120361 kPa): 1215.8 ± 2.3 kg/m3
mass density (413.15 K, 5311 kPa): 1164.62 ± 1.2 kg/m3
mass density (413.15 K, 29993 kPa): 1177.5 ± 1.4 kg/m3
mass density (413.15 K, 89994 kPa): 1204.48 ± 2 kg/m3
mass density (413.15 K, 129864 kPa): 1219.02 ± 2.4 kg/m3
mass density (413.17 K, 1563 kPa): 1162.57 ± 1.2 kg/m3
mass density (413.17 K, 39896 kPa): 1182.37 ± 1.5 kg/m3
mass density (413.17 K, 49998 kPa): 1187.17 ± 1.6 kg/m3
mass density (413.17 K, 59469 kPa): 1191.52 ± 1.7 kg/m3
mass density (413.17 K, 69996 kPa): 1196.16 ± 1.8 kg/m3
mass density (413.17 K, 139292 kPa): 1222.06 ± 2.5 kg/m3
mass density (413.18 K, 79893 kPa): 1200.36 ± 1.9 kg/m3
